The record followed here is ChEMBL document CHEMBL5291721, “A preclinical secondary pharmacology resource illuminates target-adverse drug reaction associations of marketed drugs” (Nat Commun, 2023).

One test deals with D(1A) dopamine receptor (Homo sapiens, UniProt P21728).
Another test concerns the target Substance-P receptor (Homo sapiens, UniProt P25103).
The next test concerns the target T1, D(4) dopamine receptor (Homo sapiens, UniProt P21917).
T1 sequence (P21917 whole entry): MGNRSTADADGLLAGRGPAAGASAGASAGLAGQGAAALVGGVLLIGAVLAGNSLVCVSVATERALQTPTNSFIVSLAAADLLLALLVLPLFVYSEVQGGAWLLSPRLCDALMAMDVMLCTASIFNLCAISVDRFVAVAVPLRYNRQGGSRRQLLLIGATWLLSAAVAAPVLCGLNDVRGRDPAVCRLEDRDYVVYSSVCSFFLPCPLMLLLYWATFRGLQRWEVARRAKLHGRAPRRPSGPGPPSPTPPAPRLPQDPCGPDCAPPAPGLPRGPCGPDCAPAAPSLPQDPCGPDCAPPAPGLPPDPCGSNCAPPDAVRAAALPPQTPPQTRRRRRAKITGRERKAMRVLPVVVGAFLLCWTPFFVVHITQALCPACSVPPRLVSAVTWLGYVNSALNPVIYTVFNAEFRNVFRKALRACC

Test [1] has as its target T2, Alpha-2A adrenergic receptor (Homo sapiens, UniProt P08913).
T2 sequence (P08913 whole entry): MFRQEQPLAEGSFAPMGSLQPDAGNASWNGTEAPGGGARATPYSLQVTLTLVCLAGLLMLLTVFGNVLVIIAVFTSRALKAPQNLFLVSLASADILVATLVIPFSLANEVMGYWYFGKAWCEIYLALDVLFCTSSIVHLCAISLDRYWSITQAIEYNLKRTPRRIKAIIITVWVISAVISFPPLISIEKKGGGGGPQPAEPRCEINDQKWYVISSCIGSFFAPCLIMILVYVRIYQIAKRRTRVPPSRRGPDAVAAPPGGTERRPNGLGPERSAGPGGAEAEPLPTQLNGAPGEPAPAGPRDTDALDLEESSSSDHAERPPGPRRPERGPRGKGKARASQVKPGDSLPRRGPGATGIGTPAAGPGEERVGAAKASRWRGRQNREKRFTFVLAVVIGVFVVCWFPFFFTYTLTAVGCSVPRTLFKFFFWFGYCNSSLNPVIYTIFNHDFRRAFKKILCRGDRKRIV

The target in test [2] is 5-hydroxytryptamine receptor 6 (Homo sapiens, UniProt P50406).
Test [3] addresses Sodium channel protein type 5 subunit alpha (Homo sapiens, UniProt Q14524). Format: functional, cell-based.
Test [4] addresses T3, Glucocorticoid receptor (Homo sapiens, UniProt P04150).
T3 sequence (P04150 whole entry): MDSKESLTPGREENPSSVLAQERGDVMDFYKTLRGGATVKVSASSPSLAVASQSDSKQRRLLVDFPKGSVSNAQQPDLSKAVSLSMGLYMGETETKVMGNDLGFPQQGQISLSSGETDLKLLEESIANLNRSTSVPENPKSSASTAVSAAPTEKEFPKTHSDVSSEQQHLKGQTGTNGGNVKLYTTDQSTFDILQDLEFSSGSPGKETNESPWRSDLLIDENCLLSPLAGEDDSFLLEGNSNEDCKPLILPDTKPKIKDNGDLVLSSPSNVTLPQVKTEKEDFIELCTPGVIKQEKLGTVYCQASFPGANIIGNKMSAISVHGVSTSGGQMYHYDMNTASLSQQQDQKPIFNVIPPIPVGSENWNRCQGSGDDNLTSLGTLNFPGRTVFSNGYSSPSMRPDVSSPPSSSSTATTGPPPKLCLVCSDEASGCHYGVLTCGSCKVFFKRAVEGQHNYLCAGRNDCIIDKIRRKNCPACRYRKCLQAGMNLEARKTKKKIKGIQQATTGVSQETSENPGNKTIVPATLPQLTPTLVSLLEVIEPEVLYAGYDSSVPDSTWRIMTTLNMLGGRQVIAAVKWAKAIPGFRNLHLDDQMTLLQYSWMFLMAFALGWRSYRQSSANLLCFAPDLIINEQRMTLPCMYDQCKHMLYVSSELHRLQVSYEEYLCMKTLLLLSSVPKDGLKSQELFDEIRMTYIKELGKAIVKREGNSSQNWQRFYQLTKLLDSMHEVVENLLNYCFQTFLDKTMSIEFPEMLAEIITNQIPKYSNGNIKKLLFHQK
Format: functional.

The target in test [5] is T3, Glucocorticoid receptor. Format: functional. This is another data set of the same source.
The target in test [6] is T4, Peroxisome proliferator-activated receptor gamma (Homo sapiens, UniProt P37231).
T4 sequence (P37231 whole entry): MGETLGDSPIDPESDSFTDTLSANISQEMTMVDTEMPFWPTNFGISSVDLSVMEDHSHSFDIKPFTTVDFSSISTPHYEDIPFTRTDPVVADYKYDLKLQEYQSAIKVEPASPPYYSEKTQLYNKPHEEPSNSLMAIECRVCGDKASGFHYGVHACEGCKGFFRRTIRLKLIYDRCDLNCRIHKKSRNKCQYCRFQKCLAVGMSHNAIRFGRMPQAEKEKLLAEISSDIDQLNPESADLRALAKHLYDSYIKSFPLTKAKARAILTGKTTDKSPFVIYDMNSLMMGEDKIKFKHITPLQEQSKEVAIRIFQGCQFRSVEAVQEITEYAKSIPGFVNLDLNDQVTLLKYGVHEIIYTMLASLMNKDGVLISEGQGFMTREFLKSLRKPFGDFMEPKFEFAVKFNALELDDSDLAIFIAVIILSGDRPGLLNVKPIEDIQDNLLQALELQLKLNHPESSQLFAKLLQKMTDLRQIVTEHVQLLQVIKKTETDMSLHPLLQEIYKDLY
The test is classed as functional.

Test [7] deals with Synaptic vesicular amine transporter (Rattus norvegicus, UniProt Q01827). Format: functional.
Also: assay procedure not described here.

Chain of Synaptic vesicular amine transporter (Q01827 whole entry): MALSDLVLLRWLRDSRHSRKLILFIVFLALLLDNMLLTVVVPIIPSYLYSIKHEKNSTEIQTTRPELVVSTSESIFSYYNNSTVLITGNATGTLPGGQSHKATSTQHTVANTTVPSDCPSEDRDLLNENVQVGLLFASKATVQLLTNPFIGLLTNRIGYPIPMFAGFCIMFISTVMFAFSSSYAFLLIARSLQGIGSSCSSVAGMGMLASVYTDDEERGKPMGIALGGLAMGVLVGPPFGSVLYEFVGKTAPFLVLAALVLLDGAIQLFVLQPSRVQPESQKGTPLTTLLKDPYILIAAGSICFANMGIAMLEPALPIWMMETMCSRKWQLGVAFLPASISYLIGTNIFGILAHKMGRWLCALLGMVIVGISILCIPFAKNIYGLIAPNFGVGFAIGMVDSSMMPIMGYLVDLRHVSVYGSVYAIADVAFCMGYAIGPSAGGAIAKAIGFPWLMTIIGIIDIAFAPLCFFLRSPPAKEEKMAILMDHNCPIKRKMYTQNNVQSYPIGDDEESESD
Chain of 5-hydroxytryptamine receptor 6 (P50406 whole entry): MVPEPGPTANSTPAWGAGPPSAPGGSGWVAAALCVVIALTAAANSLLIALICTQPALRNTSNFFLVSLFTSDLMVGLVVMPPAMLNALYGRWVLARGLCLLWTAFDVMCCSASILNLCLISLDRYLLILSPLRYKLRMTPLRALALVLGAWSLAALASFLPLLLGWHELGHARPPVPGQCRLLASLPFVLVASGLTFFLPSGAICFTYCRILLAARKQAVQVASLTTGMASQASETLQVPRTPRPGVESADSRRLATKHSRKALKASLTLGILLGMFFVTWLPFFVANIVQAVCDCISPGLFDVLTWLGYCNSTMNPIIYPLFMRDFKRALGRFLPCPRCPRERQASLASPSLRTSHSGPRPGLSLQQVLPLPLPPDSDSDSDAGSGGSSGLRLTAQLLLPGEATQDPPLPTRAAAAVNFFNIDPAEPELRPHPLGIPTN
Chain of D(1A) dopamine receptor (P21728 whole entry): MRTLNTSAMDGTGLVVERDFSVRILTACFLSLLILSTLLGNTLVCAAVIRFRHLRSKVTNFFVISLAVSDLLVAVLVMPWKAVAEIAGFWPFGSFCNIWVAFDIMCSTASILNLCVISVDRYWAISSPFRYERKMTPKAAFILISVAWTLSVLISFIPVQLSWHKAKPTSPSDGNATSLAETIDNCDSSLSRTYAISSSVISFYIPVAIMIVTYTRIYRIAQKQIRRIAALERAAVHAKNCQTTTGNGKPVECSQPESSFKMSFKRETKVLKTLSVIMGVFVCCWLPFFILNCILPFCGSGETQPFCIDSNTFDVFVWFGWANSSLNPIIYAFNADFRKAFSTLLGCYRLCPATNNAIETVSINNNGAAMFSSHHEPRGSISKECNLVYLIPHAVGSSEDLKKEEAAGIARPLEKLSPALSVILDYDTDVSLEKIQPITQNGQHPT
Chain of Substance-P receptor (P25103 whole entry): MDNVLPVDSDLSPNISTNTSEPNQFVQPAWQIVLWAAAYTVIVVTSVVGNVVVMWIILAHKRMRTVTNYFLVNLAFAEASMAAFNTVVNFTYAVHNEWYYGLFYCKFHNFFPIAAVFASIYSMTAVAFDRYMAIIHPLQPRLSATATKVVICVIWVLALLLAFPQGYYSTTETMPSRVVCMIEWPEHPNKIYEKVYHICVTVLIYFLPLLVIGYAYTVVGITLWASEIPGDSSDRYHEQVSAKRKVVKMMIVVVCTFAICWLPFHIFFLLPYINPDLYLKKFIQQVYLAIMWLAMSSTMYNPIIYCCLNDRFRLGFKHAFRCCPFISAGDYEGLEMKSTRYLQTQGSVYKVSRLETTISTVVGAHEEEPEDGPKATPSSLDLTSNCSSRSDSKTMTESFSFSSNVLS
Chain of Sodium channel protein type 5 subunit alpha (Q14524 whole entry): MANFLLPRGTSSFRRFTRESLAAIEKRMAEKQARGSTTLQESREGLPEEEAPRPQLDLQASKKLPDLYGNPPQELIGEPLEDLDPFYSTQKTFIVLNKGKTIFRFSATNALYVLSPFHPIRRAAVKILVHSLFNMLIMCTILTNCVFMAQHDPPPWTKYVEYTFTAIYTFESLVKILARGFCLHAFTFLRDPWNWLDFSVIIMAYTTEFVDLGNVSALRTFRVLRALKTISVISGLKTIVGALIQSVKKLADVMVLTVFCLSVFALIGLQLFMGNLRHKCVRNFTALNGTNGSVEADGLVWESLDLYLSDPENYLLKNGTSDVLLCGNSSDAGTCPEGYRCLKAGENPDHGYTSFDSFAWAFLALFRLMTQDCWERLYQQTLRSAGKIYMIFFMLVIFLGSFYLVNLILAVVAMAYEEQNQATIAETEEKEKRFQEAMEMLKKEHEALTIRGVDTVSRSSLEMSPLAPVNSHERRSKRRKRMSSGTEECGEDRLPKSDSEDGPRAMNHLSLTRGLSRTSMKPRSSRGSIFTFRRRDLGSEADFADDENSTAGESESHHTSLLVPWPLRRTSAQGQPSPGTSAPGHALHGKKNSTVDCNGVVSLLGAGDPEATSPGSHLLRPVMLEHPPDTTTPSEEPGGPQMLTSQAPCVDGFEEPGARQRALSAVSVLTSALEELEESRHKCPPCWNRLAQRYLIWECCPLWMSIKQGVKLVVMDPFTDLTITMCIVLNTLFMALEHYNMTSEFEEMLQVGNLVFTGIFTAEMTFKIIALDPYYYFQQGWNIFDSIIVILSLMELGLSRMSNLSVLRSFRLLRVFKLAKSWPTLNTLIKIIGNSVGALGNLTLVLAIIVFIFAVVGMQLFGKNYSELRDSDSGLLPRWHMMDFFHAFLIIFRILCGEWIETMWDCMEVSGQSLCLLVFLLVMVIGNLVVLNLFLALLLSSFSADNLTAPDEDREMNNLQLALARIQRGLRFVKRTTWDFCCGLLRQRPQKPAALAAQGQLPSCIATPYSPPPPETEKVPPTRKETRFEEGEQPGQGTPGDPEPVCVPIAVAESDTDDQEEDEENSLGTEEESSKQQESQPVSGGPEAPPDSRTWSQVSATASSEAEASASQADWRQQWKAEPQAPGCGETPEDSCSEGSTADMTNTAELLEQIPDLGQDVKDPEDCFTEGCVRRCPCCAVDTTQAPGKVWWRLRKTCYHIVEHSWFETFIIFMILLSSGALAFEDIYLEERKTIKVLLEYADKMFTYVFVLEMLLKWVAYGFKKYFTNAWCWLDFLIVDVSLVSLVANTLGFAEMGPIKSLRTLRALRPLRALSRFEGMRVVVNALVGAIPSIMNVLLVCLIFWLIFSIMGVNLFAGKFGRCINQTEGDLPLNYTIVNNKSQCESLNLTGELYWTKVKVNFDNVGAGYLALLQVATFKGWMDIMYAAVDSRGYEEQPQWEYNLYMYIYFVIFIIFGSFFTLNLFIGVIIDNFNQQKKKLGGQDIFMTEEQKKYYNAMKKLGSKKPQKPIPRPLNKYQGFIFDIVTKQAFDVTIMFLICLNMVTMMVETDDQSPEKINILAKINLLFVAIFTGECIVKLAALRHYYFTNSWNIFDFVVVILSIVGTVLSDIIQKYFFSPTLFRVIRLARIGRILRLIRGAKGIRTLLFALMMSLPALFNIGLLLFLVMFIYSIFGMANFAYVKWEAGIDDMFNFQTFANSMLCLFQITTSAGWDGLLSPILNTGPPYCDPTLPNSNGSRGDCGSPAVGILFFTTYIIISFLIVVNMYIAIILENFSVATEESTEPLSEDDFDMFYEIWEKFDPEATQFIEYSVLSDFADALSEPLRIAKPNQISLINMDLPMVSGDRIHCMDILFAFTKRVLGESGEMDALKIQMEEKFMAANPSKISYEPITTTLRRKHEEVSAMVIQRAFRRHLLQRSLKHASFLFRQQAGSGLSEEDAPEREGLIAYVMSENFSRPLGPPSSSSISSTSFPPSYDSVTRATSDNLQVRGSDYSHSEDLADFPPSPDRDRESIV

Regarding `CC(C)C[C@H](NC(=O)[C@@H](O)[C@H](N)Cc1ccccc1)C(=O)O` [UBENIMEX], the concentration at half-maximal activity (AC50) – broadly, the concentration giving half of the maximal activity seen – at D(1A) dopamine receptor is over 30 µM.

Turning to `Cc1ccc(C)c(OCCCC(C)(C)C(=O)O)c1` [GEMFIBROZIL], the AC50 (at Substance-P receptor; at D(4) dopamine receptor; in test [1]) was over 10 µM each time.

With `O=C(O)Cc1ccccc1Nc1c(Cl)cccc1Cl` [DICLOFENAC], the AC50 at Substance-P receptor was over 10 µM; at D(4) dopamine receptor it was over 10 µM; in [1] it was over 10 µM; in test [2], over 10 µM; in test [3], over 30 µM.

With `CC[C@H](C)C(=O)O[C@H]1C[C@@H](C)C=C2C=C[C@H](C)[C@H](CC[C@@H]3C[C@@H](O)CC(=O)O3)[C@H]21` [LOVASTATIN], the half-maximal activity concentration (AC50) on Substance-P receptor is over 10 µM; at D(4) dopamine receptor, over 10 µM; in test [1] it was over 10 µM; in test [3], over 30 µM.

`CC(C)[C@H](N)C(=O)OCCOCn1cnc2c(=O)[nH]c(N)nc21` [VALACYCLOVIR]: the AC50 (at Substance-P receptor; on D(4) dopamine receptor; in test [1]) was over 10 µM throughout.

`CCCc1nc2c(C)cc(-c3nc4ccccc4n3C)cc2n1Cc1ccc(-c2ccccc2C(=O)O)cc1`: the AC50 is over 30 µM at Glucocorticoid receptor [4]; over 10 µM at Substance-P receptor; over 30 µM at Glucocorticoid receptor [5]; over 10 µM at D(4) dopamine receptor; over 30 µM in [1]; over 10 µM in test [2]. Besides, the AC50 in [3] is 27.3 µM; in [6], 19 µM.

For the molecule `O=C1Cc2cc(CCN3CCN(c4nsc5ccccc45)CC3)c(Cl)cc2N1` [ZIPRASIDONE], the AC50 was over 50 µM in [3] and 0.0035 µM in test [7].

Take `O=C(O)c1ccccc1` [BENZOIC ACID]: the concentration at half-maximal activity (AC50) is over 50 µM in [3] and 18 µM in test [7].

Consider `Cc1nc(Nc2ncc(C(=O)Nc3c(C)cccc3Cl)s2)cc(N2CCN(CCO)CC2)n1` [DASATINIB], for which the AC50 (at D(4) dopamine receptor; in test [1]; in [2]) was over 10 µM throughout.

In turn, `CC1(C)S[C@@H]2[C@H](NC(=O)C(C(=O)O)c3ccccc3)C(=O)N2[C@H]1C(=O)O` (some centres undefined) [CARBENICILLIN] showed an AC50 in test [6] of over 30 µM.

The molecule `CC(C)NC(=N)NC(=N)Nc1ccc(Cl)c(Cl)c1` [CHLORPROGUANIL] displayed an AC50 at D(1A) dopamine receptor of over 30 µM.

In the case of `CC(C)Cc1ccc([C@H](C)C(=O)O)cc1` [DEXIBUPROFEN], the AC50 at Glucocorticoid receptor [4] and at Glucocorticoid receptor [5] was over 30 µM throughout.

As for `C[C@]12C=CC(=O)C=C1CC[C@H]1[C@@H]3C[C@@H](O)[C@](O)(C(=O)CO)[C@@]3(C)C[C@H](O)[C@@]12F` [TRIAMCINOLONE], the half-maximal activity concentration (AC50) at Glucocorticoid receptor [4] is 1.2 µM; at Glucocorticoid receptor [5], over 30 µM.

`CN(CCOc1ccc(CC2SC(=O)NC2=O)cc1)c1ccccn1` (centres undefined) [ROSIGLITAZONE]: the AC50 on Substance-P receptor is over 10 µM; at D(4) dopamine receptor it was over 10 µM; in test [1], over 30 µM; in [2] it was over 10 µM; in [3] it was over 30 µM.

For `CC(CN1c2ccccc2Sc2ccccc21)N(C)C` (centres undefined) [PROMETHAZINE], the AC50 is over 10 µM at Substance-P receptor and over 30 µM at D(1A) dopamine receptor.

With `COc1cc(C(C)=O)ccc1OCCCN1CCC(c2noc3cc(F)ccc23)CC1` [ILOPERIDONE], the half-maximal activity concentration (AC50) at Glucocorticoid receptor [4] was over 30 µM; at Substance-P receptor it was over 10 µM; on Glucocorticoid receptor [5] it was over 30 µM; on D(4) dopamine receptor it was 0.0209 µM; in test [1], 0.176 µM; in test [2], 0.257 µM. For the same molecule, the half-maximal activity concentration (AC50) in [6] is over 30 µM.

`Cc1ccccc1C(=O)Nc1ccc(C(=O)N2CCCC(O)c3cc(Cl)ccc32)c(C)c1` (centres undefined) [TOLVAPTAN] displayed a concentration at half-maximal activity (AC50) in test [7] of over 30 µM.

As for `C=CC(=O)Nc1cccc(Oc2nc(Nc3ccc(N4CCN(C)CC4)cc3)nc3ccsc23)c1` [OLMUTINIB], the AC50 in test [7] was 0.44 µM.

Consider `CNC[C@H](O)c1ccc(O)c(O)c1` [EPINEPHRINE], for which the concentration at half-maximal activity (AC50) in test [6] is over 30 µM.

Consider `CCOc1nc2cccc(C(=O)O)c2n1Cc1ccc(-c2ccccc2-c2nnn[nH]2)cc1`, for which the half-maximal activity concentration (AC50) is over 30 µM on Glucocorticoid receptor [4]; over 10 µM on Substance-P receptor; over 30 µM at Glucocorticoid receptor [5]; over 10 µM on D(4) dopamine receptor; over 10 µM in [1]; over 10 µM in test [2]. For the same molecule, the half-maximal activity concentration (AC50) in test [3] is over 50 µM; in test [6] it was 18 µM.

`CCCCCCCN(CC)CCCC(O)c1ccc(NS(C)(=O)=O)cc1` (centres undefined) [IBUTILIDE] showed a half-maximal activity concentration (AC50) in test [3] of over 30 µM.

`O=C(O)Cc1ccccc1Oc1ccc(Cl)cc1Cl` [FENCLOFENAC]: the AC50 (on Substance-P receptor; on D(4) dopamine receptor; in test [1]) was over 10 µM throughout.

`CC[C@@H](CO)NC(=O)[C@@H]1C=C2c3cccc4c3c(cn4C)C[C@H]2N(C)C1` [METHYSERGIDE] gave an AC50 in test [1] of 2.42 µM.

In [6], `CCC(=O)O[C@]1(C(=O)CCl)[C@@H](C)C[C@H]2[C@@H]3CCC4=CC(=O)C=C[C@]4(C)[C@@]3(F)[C@@H](O)C[C@@]21C` [CLOBETASOL PROPIONATE] returned an AC50 of 18 µM.

Turning to `COc1cc(C(=O)NS(=O)(=O)c2ccccc2C)ccc1Cc1cn(C)c2ccc(NC(=O)OC3CCCC3)cc12` [ZAFIRLUKAST], the concentration at half-maximal activity (AC50) on Glucocorticoid receptor [4] and at Glucocorticoid receptor [5] was over 30 µM each time.

`C#C[C@]1(O)C=C[C@H]2[C@@H]3CCC4=CC(=O)CC[C@@H]4[C@H]3CC[C@@]21CC` [GESTODENE] yielded an AC50 on D(1A) dopamine receptor of over 30 µM.

In turn, `CN1Cc2c(N)cccc2C(c2ccccc2)C1` (centres undefined) [NOMIFENSINE] returned a concentration at half-maximal activity (AC50) in test [7] of 28.8 µM.

In the case of `CN[C@@H]1[C@H](O[C@H]2[C@H](O[C@H]3[C@H](O)[C@@H](O)[C@H](NC(=N)N)[C@@H](O)[C@@H]3NC(=N)N)O[C@@H](C)[C@]2(O)CO)O[C@@H](CO)[C@H](O)[C@H]1O` [DIHYDROSTREPTOMYCIN], the AC50 on D(1A) dopamine receptor was over 30 µM.

In the case of `Nc1c(CC(=O)O)cccc1C(=O)c1ccc(Br)cc1` [BROMFENAC], the half-maximal activity concentration (AC50) on D(1A) dopamine receptor is over 30 µM.
